Experimental data as given in patent US9260417B2, “Therapeutic methods and compositions involving allosteric kinase inhibition” (AMITECH THERAPEUTIC SOLUTIONS, INC., priority 2010, dated 2016).

Legend:
[1] = molecular target: T1, CSF1R (Homo sapiens (Human), UniProt P07333); assay: In vitro kinase panel (SelectScreen); assay type: biochemical
[2] = molecular target: EGFR (Homo sapiens (Human), UniProt P00533); assay: In vitro kinase panel (SelectScreen); assay type: biochemical
[3] = molecular target: EGFR L861Q (Homo sapiens (Human), UniProt P00533, L861Q); assay: In vitro kinase panel (SelectScreen); assay type: biochemical
[4] = molecular target: T2, BRAF (Homo sapiens (Human), UniProt P15056); assay: In vitro kinase panel (SelectScreen); assay type: biochemical
[5] = tested on: VSMCs; assay: XTT viability assay in VSMCs; assay type: cell-based, human; details: 72 h, full growth medium containing 10% FBS; read-out: EC50, VSMC viability
Procedure: FIG. 1A-1F illustrate molecular modeling and assay screening to compounds for dual targeting of PDGFRβ and RAF. (FIG. 1A) Molecular modeling of the amino-triazole based small molecules in PDGFRβ and RAF, respectively. […] A homology model of PDGFRβ was created with a structurally-related family member (VEGFR2, PDB 1y6b). […] To autophosphorylation, immunoblots were carried out with a phospho-tyrosine antibody. Membranes were stripped and reprobed for total PDGFRβ levels. […] (FIG. 1D) Structure activity relationships of the amino-triazole based small molecules comparing both PDGFRβ and B-RAF. […] Curves represent the average of 3 separate experiments, error bars represent ±SEM.
For XTT assays, cells were grown in 96-well plates overnight and all assays were conducted in growth medium will full serum and additives. […] Dose-response curves were plotted using GraphPad Prism software and EC50s were calculated using this program.

[6] = molecular target: ABL1 (Homo sapiens (Human), UniProt P00519); assay: In vitro kinase panel (SelectScreen); assay type: biochemical
[7] = tested on: HUVECs co-cultured with hTERT-human hepatic stellate cells; assay: Stellate cell/endothelial cell co-culture tube formation assay; assay type: cell-based; details: […] 6, […] 3, 1.0 μM imatinib, 0.5 μM GW 5074
Procedure: One representative panel from 3 independent experiments is shown. […] Scale bar=200 μm.
The stellate cells were washed in PBS and mixed with early passage HUVECs (p<5) at a ratio of 1:4 and mixed into a 3.75 mg/ml Type 1 Rat tail collagen matrix (BD Biosciences) in M-199 media. 30 μl of this mixture was seeded onto each well of a half-area 96 well plate (Corning). The collagen was allowed to polymerize for 30 min at 37° C. and […] of complete EBM-2 media was added to each well. Various inhibitors were serially diluted in DMSO and subsequently added to duplicate wells 6 h post cell seeding. […] The endothelial tubes and the stellate cells were imaged at 48 h with a 10× objective on a confocal microscope. Images were collected across five fields per well.
Stellate cell/endothelial cell tube formation assay and mouse matrigel model. This assay was performed as described in the SI Methods. The stellate cells were a gift from Dr. David Brenner and previously described (Schnabl, et al. (2002) Laboratory investigation; a journal of technical methods and pathology 82:323-333). […] The mouse matrigel model was performed as previously described (Eliceiri, et al. (1999) Molecular cell 4:915-924 5) and further details of immunohistochemistry and animal dosing can be found herein.
To validate the findings of Example 10, a co-culture angiogenesis assay was utilized to evaluate similar combinations of PDGFR and RAF inhibitors. In the assay, HUVECs are mixed with hepatic stellate cells (a pericyte found in the perisinusoidal space of the liver) in a 3D-collagen gel. The co-culture produced endothelial tubes with pericyte contacts (from the stellate cells) that can be imaged and quantified as shown in FIGS. 4B and C.

[8] = molecular target: T2, BRAF; assay: KINOMEscan competitive binding assay; details: 10 uM
[9] = molecular target: PIM1 (Homo sapiens (Human), UniProt P11309); assay: KINOMEscan competitive binding assay; details: 10 uM
[10] = molecular target: T1, CSF1R; assay: KINOMEscan competitive binding assay; details: 10 uM
[11] = molecular target: CDK8 (Homo sapiens (Human), UniProt P49336); assay: KINOMEscan competitive binding assay; details: 10 uM
[12] = molecular target: CRAF S338 (Mus musculus (Mouse), UniProt Q99N57); assay: CRAF S338 phosphorylation in R40P cells (Western); assay type: cell-based; details: 12 h, sorafenib 5 μM, compound 6 5, 2.5, 1.25 μM
Procedure: R40P cells are derived from a spontaneous pancreatic adenocarcinoma mouse model which expresses K-ras^G12D while p16/Ink4a/ARF is lost. […] At this time the cells were lysed and protein levels were quantified by BCA analysis. The lysates were then loaded on an SDS-PAGE gel and transferred to nitrocellulose for Western blotting. Immunoblotting was performed with the following antibodies: pMEK1/2 S217/S221 (Cell Signaling), pCRAF S338 (Cell Signaling), and total CRAF (BD Biosciences). Chemilluminescence was used for detection on film.

[13] = Pharmacokinetic analysis in mice; assay type: in vivo
[14] = tested on: HCT116; assay: Tumor cell viability; assay type: cell-based, human; details: Colon HCT116, K-Ras
Procedure: For XTT assays, cells were grown in 96-well plates overnight and all assays were conducted in growth medium will full serum and additives. Compounds were serially diluted in DMSO and then further diluted into the medium to give the appropriate concentration while minimizing precipitation associated with serial diluting in medium alone Inhibitors were added for 72 h and cell viability was quantified at 450 nm after the addition of 1 mg/ml XTT solution (Sigma-Aldrich) in phenol-red free DMEM medium containing […] (Sigma-Aldrich). Dose-response curves were plotted using GraphPad Prism software and EC50s were calculated using this program.

[15] = tested on: tumor lines; assay: Tumor cell viability, summary over tumor lines; assay type: cell-based; details: summary of Table 5

Row | Structure (SMILES) | % Inhibition at 10 μM [1] [%] | % Inhibition at 10 μM [2] [%] | % Inhibition at 10 μM [3] [%] | % Inhibition at 10 μM [4] [%] | EC50 [5] [nM] | % Inhibition at 10 μM [6] [%] | endothelial tube formation and % pericyte-covered tube length [7] | phosphorylation on CRAF S338 [12] | also measured
1 | Nc1cc(Oc2ccc(-c3nnc(Nc4cccc(C(F)(F)F)c4)[nH]3)cc2)ncn1 [Compound 3] | 79 | −2 | −1 | 17 | 15000 | 4 | did not affect endothelial tube formation |  | 
2 | CSc1nc(N)cc(Oc2ccc(-c3nnc(Nc4cccc(C(F)(F)F)c4)[nH]3)cc2)n1 [Compound 6] | 23 | −3 | −4 | −1 | 590 | 3 | dramatic reduction | does not promote this increase | % Control [8]: 91%; % Control [9]: 96%; % Control [10]: 51%; % Control [11]: 67%; AUC0-12h ([13]; 50 mg/kg, ip, bid): 14700 ng·h/mL; T1/2 ([13]; 50 mg/kg, ip, bid): 11.5 h; AUC0-24h ([13]; 100 mg/kg, oral): 8700 ng·h/mL; Cmax (printed C.) ([13]; 100 mg/kg, oral): 4900 ng/mL; T1/2 ([13]; 100 mg/kg, oral): 6.1 h; EC50 [14]: 400 nM; times more potent than sorafenib [15]: 15-100 times; EC50 ([15]; read-out: EC50 in wide range of tumor lines): 100 to 600 nM
3 | CNC(=O)c1cc(Oc2ccc(NC(=O)Nc3ccc(Cl)c(C(F)(F)F)c3)cc2)ccn1 [sorafenib, reference compound] |  |  |  |  |  |  |  | induces an increase | EC50 ([14]; Homo sapiens, HCT-116): 8210 nM
